In patent publication EP4527379A1, “LIPIDS CONTAINING AN OLIGOGLYCEROL GROUP” (Thermosome GmbH, priority 2023, dated 2025):

Columns and labels:
[1] = Solubility and chemical stability in organic solvents; assay type: physicochemical
Method: CLG2 is readily soluble in chloroform as a clear solution with at least 10 mg/ml.

[2] = Indicative storage stability studies using HPLC/CAD; assay type: physicochemical
Method: The batch was investigated in indicative storage stability studies using HPLC/CAD. CLG2 is stable in its powder form for at least 1 year when stored at -20°C. In contrast to NLG2, CLG2 could also be stored in organic solvents (e.g., chloroform) at temperature ranges from -20 to 2-8°C for at least 9 months.

[3] = LNP formulations with the cationizable lipid (Carrasco et al. 2021); cited from earlier work

solubility ([1]; chloroform, organic solvent or mixture, read-out: soluble in chloroform as a clear solution) [µg/mL]	decomposition in ethanol ([1]; ethanol, compared with methanol and isopropanol)	could be stored in organic solvents ([2]; organic solvents (e.g., chloroform), -20 to 2-8°C)	stable in its powder form ([2]; powder, stored at -20°C)	SMILES	pKa [3]
≥ 10000	less pronounced	at least 9 months	at least 1 year	CCCCCCCCCCCCCCCC(=O)OCC(C[N+](C)(C)CC(O)COCC(O)CO)OC(=O)CCCCCCCCCCCCCCC (centres unmarked) [CLG2]	
				CCCCC/C=C\C/C=C\CCCCCCCCC(CCCCCCCC/C=C\C/C=C\CCCCC)OC(=O)CCCN(C)C [DLin-MC3-DMA]	6.57
